Counter-ions that a name gives are not always drawn. Like-named read-outs stand apart in the source and are kept apart here.
What was measured:
Format in all cases: biochemical
Serotonin (5-HT) uptake = target: T1, Serotonin (5-HT) uptake (Rattus norvegicus, UniProt P31652); assay: Serotonin (5-HT) uptake inhibitory activity using rat brain synaptosome (frontal cortex); settings: tritium-labeled 5-HT 8 nM, 37° C. 10 minutes
T1 construct: The suspension was used as a crude synaptosome fraction; from tissue; host or cells: rat (male Wistar) frontal cortex, crude synaptosome fraction
T1 sequence (P31652 whole entry): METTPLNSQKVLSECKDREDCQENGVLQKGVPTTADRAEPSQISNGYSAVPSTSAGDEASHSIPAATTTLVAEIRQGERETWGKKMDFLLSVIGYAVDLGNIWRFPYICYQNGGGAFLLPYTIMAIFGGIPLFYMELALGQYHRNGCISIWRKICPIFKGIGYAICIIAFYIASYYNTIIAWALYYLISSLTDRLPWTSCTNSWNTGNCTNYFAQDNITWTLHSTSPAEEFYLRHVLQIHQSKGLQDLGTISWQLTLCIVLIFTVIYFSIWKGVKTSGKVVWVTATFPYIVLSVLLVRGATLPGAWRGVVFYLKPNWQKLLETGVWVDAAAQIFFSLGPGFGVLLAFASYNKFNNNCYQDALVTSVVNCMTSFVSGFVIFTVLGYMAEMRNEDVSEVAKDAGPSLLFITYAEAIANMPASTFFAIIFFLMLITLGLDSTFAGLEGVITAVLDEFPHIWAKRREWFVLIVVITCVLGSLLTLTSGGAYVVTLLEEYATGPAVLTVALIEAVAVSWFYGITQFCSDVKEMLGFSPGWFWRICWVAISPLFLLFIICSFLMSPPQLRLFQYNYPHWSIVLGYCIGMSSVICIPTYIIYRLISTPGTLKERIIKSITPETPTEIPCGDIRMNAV
Method: Measurement of Serotonin (5-HT) Uptake Inhibitory Activity of Test Compound Using Rat Brain Synaptosome
(§1) Male Wistar rats were decapitated, and their brains were removed and dissected to remove the frontal cortex. The separated frontal cortex was placed in a 20-fold weight of a 0.32 molarity (M) sucrose solution and homogenized with a potter homogenizer. The homogenate was centrifuged at 1000 g at 4° C. for 10 minutes, and the supernatant was further centrifuged at 20000 g at 4° C. for 20 minutes. […] The suspension was used as a crude synaptosome fraction.
(§2) Uptake reaction was performed using each well of a 96-well round-bottom plate and a 200 μl volume in total of a solution containing pargyline (final concentration: 10 μM) and ascorbic acid (final concentration: 0.2 mg/ml).
(§3) Specifically, a solvent, unlabeled 5-HT, and serially diluted test compounds were separately added to the wells, and the synaptosome fraction was added in an amount 1/10 of the final volume to each well and preincubated at 37° C. for 10 minutes. Then, a tritium-labeled 5-HT solution (final concentration: 8 nM) was added thereto to initiate uptake reaction at 37° C. 10 minutes later, the uptake reaction was terminated by suction filtration through a 96-well glass fiber filter plate. Furthermore, the filter was washed with a cold saline and then sufficiently dried. MicroScint-O (PerkinElmer Co., Ltd.) was added thereto, and the residual radioactivity on the filter was measured.
(§4) An uptake value obtained by the addition of only the solvent was defined as 100%, and an uptake value (nonspecific uptake value) obtained by the addition of the unlabeled 5-HT (final concentration: 10 μM) was defined as 0%. A 50%, inhibitory concentration was calculated from the test compound concentrations and inhibitory activities thereat.

Dopamine (DA) uptake = target: T2, Dopamine (DA) uptake (Rattus norvegicus, UniProt P23977); assay: Dopamine (DA) uptake inhibitory activity using rat brain synaptosome (corpus striatum); settings: tritium-labeled DA 2 nM, 37° C. ten minutes, read-out: 50% Inhibitory concentration
T2 construct: The suspension was used as a crude synaptosome fraction; from tissue; host or cells: rat (male Wistar) corpus striatum, crude synaptosome fraction
T2 sequence (P23977 whole entry): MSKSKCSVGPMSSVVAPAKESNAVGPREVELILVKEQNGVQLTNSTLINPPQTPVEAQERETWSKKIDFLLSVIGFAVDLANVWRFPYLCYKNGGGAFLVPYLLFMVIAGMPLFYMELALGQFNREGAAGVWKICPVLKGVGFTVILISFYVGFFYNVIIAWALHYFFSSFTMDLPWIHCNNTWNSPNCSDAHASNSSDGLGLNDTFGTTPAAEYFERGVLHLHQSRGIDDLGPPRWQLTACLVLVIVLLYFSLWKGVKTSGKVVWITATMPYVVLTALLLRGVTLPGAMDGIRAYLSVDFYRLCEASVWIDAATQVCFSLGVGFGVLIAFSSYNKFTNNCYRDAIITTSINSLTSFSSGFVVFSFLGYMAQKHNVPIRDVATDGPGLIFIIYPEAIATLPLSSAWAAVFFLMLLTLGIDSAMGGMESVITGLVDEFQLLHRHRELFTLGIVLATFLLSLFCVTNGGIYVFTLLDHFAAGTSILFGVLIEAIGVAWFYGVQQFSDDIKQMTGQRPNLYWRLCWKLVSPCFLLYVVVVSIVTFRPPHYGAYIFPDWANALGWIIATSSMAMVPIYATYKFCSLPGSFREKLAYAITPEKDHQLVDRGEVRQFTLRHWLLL
Method: Measurement of Dopamine (DA) Uptake Inhibitory Activity of Test Compound Using Rat Brain Synaptosome
as §1, with “corpus striatum.” for “frontal cortex.”, “corpus striatum” for “frontal cortex”
Uptake reaction was performed using each well of a 96-well round-bottom plate and a 200 μl volume in total of a solution containing pargyline (final concentration: 10 μM) and ascorbic acid (final concentration: 0.2 mg/mil).
as §3, with “unlabeled DA,” for “unlabeled 5-HT,”, “tritium-labeled DA” for “tritium-labeled 5-HT”, “concentration: 2” for “concentration: 8”, “C. Ten” for “C. 10”
as §4, with “DA” for “5-HT”, “50%” for “50%,”

[1] = target: Norepinephrine (NE) uptake (Rattus norvegicus, UniProt Q9WTR4); assay: Norepinephrine (NE) uptake inhibitory activity using rat brain synaptosome (hippocampus)
Method: Measurement of Norepinephrine (NE) Uptake Inhibitory Activity of Test Compound Using Rat Brain Synaptosome
Male Wistar rats were decapitated, and their brains were removed and dissected to remove the hippocampus. The separated hippocampus was placed in a 20-fold weight of a 0.32 molarity (M) sucrose solution and homogenized with a potter homogenizer. The homogenate was centrifuged at 1000 g at 4° C. for 10 minutes, and the supernatant was further centrifuged at 20000 g at 4° C. for 20 minutes. The pellet was suspended in an incubation buffer (20 mM HEPES buffer (pH 7.4) containing 10 mM glucose, 145 mM sodium chloride, 4.5 mM potassium chloride, 1.2 mM magnesium chloride, and 1.5 mM calcium chloride). The suspension was used as a crude synaptosome fraction.
as §2
as §3, with “unlabeled NE,” for “unlabeled 5-HT,”, “tritium-labeled NE” for “tritium-labeled 5-HT”, “concentration: 12” for “concentration: 8”, “C. Ten” for “C. 10”
as §4, with “NE” for “5-HT”, “50%” for “50%,”

[2] = read-out: 50% Inhibitory concentration
[3] = tritium-labeled NE 12 nM, 37° C. ten minutes, read-out: 50% inhibitory concentration
[4] = read-out: 50% inhibitory concentration, tritium-labeled NE 12 nM, 37° C. ten minutes

Row | Structure (SMILES) | IC50 (Serotonin (5-HT) uptake; [2]) [nM] | IC50 (Dopamine (DA) uptake) [nM] | IC50 [1, 3] [nM] | IC50 (Serotonin (5-HT) uptake; 50% Inhibitory concentration) [nM] | IC50 [1, 4] [nM]
1 | CC1(C)CN(c2cccc3ccccc23)[C@H]2CCCC[C@H]2N1 [Example 118] | 13.7 | 8.3 | 3.7 |  | 
2 | C[C@@H]1CN(c2ccc(F)c3occc23)[C@H]2CCCC[C@@H]2N1 [Example 1124] | 7.1 | 49.3 | 0.8 |  | 
3 | CC1(C)CN(c2cc(F)cc3ccsc23)[C@@H]2CCCC[C@@H]2N1 [Example 621] |  | 128 |  | 7 | 0.7
4 | C[C@@H]1CN(c2ccc(OC(F)F)c(F)c2)[C@H]2CCCC[C@@H]2N1 [Example 1534] |  | 215 |  | 38.1 | 4
5 | CC1(C)CN(c2cccc3[nH]ccc23)[C@@H]2CCCC[C@@H]2N1 [Example 85] | 7.2 | 95.7 | 4.9 |  | 
6 | C[C@@H]1CN(c2ccc3ncsc3c2)[C@H]2CCCC[C@@H]2N1 [Example 1326] | 37.8 | 91.8 | 1.8 |  | 
7 | C[C@@H]1CN(c2ccc3sccc3c2)[C@H]2CCCC[C@@H]2N1 (relative stereo) [Example 285] | 19.7 | 43.9 | 1.4 |  | 
8 | CC1(C)CN(c2ccccc2Cl)[C@H]2CCCC[C@H]2N1 [Example 165] | 12 | 6.8 | 2.4 |  | 
9 | CC1(C)CN(c2ccc3sccc3c2)[C@H]2CCCCC[C@@H]2N1 (relative stereo) [Example 348] | 6.4 | 27.3 | 4.6 |  | 
10 | C[C@@H]1CN(c2ccc3sccc3c2)[C@H]2CCCC[C@@H]2N1 [Example 1121] | 8.5 | 29.9 | 0.7 |  | 
11 | CC1(C)CN(c2csc3ccccc23)[C@H]2CCCC[C@H]2N1 [Example 841] | 28.1 | 5.1 | 0.9 |  | 
12 | Clc1ccc(N2CC3(CCC3)N[C@H]3CCCC[C@H]32)cc1 [Example 276] | 7.2 | 10.9 | 4.5 |  | 
13 | CC1(C)CN(c2ccc(F)c3occc23)[C@H]2CCCC[C@H]2N1 [Example 136] | 1.3 | 7.7 | 0.5 |  | 
14 | C[C@@H]1CN(c2ccc(F)c3ccccc23)[C@H]2CCCC[C@@H]2N1 [Example 1318] | 40.7 | 83.5 | 6.6 |  | 
15 | CC1(C)CN(c2ccc(F)c3ccccc23)[C@H]2CCCC[C@@H]2N1 (relative stereo) [Example 409] | 35.6 | 165 | 9.1 |  | 
16 | COc1c(F)cc(N2CC(C)(C)N[C@H]3CCCC[C@@H]32)cc1F [Example 233] | 7.4 | 38.8 | 3.7 |  | 
17 | C[C@@H]1CN(c2cccc3ccsc23)[C@@H]2CCCC[C@@H]2N1 (relative stereo) [Example 1113] | 5.4 | 26 | 1.7 |  | 
18 | CC1(C)CN(c2cccc3[nH]ncc23)[C@H]2CCCC[C@H]2N1 [Example 778] | 87.5 | 4.9 | 4.2 |  | 
19 | CC1(C)CN(c2ccnc3[nH]ccc23)[C@H]2CCCC[C@@H]2N1 [Example 586, (4aS,8aS)-3,3-dimethyl-1-(1H-pyrrolo[2,3-b]pyridin-4-yl)decahydroquinoxaline fumarate] | 5.2 | 93 | 4 |  | 
20 | CC1(C)CN(c2ccc3cc(O)ccc3c2)[C@H]2CCCC[C@@H]2N1 [Example 850] | 7.3 | 7 | 1 |  | 
21 | CC1(C)CN(c2ccc(O)c(Cl)c2)[C@H]2CCCC[C@@H]2N1 [Example 918] | 10 | 42 | 0.8 |  | 

Continued, in another order:

Row | IC50 (Serotonin (5-HT) uptake; [2]) [nM] | IC50 (Dopamine (DA) uptake) [nM] | IC50 [1, 3] [nM] | Structure (SMILES) | IC50 (Serotonin (5-HT) uptake; 50% Inhibitory concentration) [nM] | IC50 [1, 4] [nM]
22 | 3.8 | 54 | 7.5 | Cc1c(Cl)cccc1N1CC(C)(C)N[C@H]2CCCC[C@H]21 [Example 468] |  | 
23 | 2.6 | 15.1 | 0.7 | CC1(C)CN(c2cccc3occc23)[C@@H]2CCCC[C@@H]2N1 (relative stereo) [Example 33] |  | 
24 | 1 | 78.9 | 9.5 | CC1(C)CN(c2ccc3sccc3c2)[C@@H]2CCC[C@@H]2N1 (racemic) [Example 7] |  | 
25 | 0.9 | 76.1 | 1.9 | CC1(C)CN(c2ccc(OC(F)F)c(F)c2)[C@H]2CCCC[C@@H]2N1 [Example 587, (4aS,8aS)-1-(4-(difluoromethoxy)-3-fluorophenyl)-3,3-dimethyldecahydroquinoxaline dihydrochloride] |  | 
26 | 5.4 | 19.9 | 3 | CC1(C)CN(c2ccc(F)c3[nH]ccc23)[C@H]2CCCC[C@@H]2N1 [Example 895] |  | 
27 | 2.4 | 378 | 60.9 | CC1(C)CN(c2ccc3sccc3c2)C2COCC2N1 (stereo not drawn) [Example 8] |  | 
28 | 5.8 | 31.9 | 0.9 | CC1(C)CN(c2cccc3sccc23)[C@@H]2CCCC[C@@H]2N1 (relative stereo) [Example 27] |  | 
29 | 1.4 | 161 | 0.7 | CC1(C)CN(c2ccc(F)c3c2CCC3)[C@H]2CCCC[C@H]2N1 [Example 791] |  | 
30 | 4.4 | 18.3 | 1.7 | CC1(C)CN(c2ccc3occc3c2)[C@H]2CCCC[C@@H]2N1 [Example 196] |  | 
31 | 2.6 | 47.9 | 1 | CC1(C)CN(c2cccc3ccsc23)[C@@H]2CCCC[C@@H]2N1 [Example 72] |  | 
32 | 4.1 | 68.8 | 6 | CC1(C)CN(c2ccc3[nH]c(C#N)cc3c2)[C@H]2CCCC[C@@H]2N1 [Example 582, (4aS,8aS)-1-(2-cyano-1H-indol-5-yl) 3,3-dimethyldecahydroquinoxaline] |  | 
33 | 5.3 | 3.9 | 0.5 | CC1(C)CN(c2cccc3ccsc23)[C@H]2CCCC[C@H]2N1 [Example 130] |  | 
34 | 1.5 | 9 | 1 | CC1(C)CN(c2ccc3[nH]c(C#N)cc3c2)[C@@H]2CCCC[C@@H]2N1 [Example 654] |  | 
35 | 4.6 | 13.2 | 5.9 | COc1cc2ccc(N3CC(C)(C)N[C@H]4CCCC[C@H]43)cc2cc1C#N [Example 610] |  | 
